Source: US9708316B2 (BRISTOL-MYERS SQUIBB COMPANY, priority 2014, dated 2017)

How the values were obtained:
[1] = target: HIS-TGFβR2 WT (Homo sapiens, UniProt P37173); assay: HTRF probe-displacement assay, HIS-TGFβR2 WT; type: binding
[2] = target: T1, HIS-TGFβR1 T204D (Homo sapiens, UniProt P36897, T204D); assay: HTRF probe-displacement assay, HIS-TGFβR1 T204D; type: binding; settings: read-out: TGFβR1 (μM) IC50
T1 sequence (P36897 34-503 T204D): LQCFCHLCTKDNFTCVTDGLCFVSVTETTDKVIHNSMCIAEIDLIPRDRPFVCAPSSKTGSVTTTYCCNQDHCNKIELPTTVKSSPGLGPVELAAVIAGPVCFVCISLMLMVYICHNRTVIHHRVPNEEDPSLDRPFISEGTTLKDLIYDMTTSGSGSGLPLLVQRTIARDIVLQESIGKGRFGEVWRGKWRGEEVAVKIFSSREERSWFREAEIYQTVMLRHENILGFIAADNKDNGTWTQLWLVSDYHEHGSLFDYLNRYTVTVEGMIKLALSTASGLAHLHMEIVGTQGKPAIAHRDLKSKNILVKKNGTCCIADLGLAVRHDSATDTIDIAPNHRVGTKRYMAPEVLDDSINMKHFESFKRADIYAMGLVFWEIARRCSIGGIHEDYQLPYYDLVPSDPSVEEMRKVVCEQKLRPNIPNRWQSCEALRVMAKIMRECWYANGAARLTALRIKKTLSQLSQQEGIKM

Sequence of HIS-TGFβR2 WT (P37173 23-567): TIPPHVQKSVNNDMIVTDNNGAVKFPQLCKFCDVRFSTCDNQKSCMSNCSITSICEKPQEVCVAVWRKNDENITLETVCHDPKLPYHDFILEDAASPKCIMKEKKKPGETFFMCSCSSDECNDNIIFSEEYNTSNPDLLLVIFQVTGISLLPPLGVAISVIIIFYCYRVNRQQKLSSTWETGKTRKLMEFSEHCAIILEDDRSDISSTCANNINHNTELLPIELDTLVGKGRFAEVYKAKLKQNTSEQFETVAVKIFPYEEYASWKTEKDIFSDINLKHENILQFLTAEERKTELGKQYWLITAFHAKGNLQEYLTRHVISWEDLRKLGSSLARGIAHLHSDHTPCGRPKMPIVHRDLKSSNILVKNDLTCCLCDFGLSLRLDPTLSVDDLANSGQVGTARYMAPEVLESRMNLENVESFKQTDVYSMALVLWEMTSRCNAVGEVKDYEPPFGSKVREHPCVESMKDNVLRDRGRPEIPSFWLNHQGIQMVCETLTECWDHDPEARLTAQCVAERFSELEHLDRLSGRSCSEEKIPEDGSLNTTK

Row | IC50 [1] [µM] | IC50 [2] [µM] | SMILES
1 | > 15 | 0.55 | CC(=O)Nc1cc(-c2c(-c3cccc(C(F)F)n3)c3ncccc3n2CC(N)=O)ccn1 [Example 114, 2-(2-(2-Acetamidopyridin-4-yl)-3-(6-(difluoromethyl)pyridin-2-yl)-1H-pyrrolo[3,2-b]pyridin-1-yl)acetamide]
2 | ≥ 15 | 0.361 | COc1ccc(-c2c(-c3ccnc(NCC(C)C)c3)[nH]c3cc(Cl)cnc23)nc1 [Example 243, 4-(6-Chloro-3-(5-methoxypyridin-2-yl)-1H-pyrrolo[3,2-b]pyridin-2-yl)-N-isobutylpyridin-2-amine]
3 | > 15 | 0.004 | CC(=O)Nc1cc(-c2[nH]c3c(-c4c(C)noc4C)ccnc3c2-c2cccc(C(F)F)n2)ccn1 [Example 130, N-(4-{3-[6-(Difluoromethyl)pyridin-2-yl]-7-(dimethyl-1,2-oxazol-4-yl)-1H-pyrrolo[3,2-b]pyridin-2-yl}pyridin-2-yl)acetamide]
4 | 0.44 | 0.049 | CC(=O)Nc1cc(-c2[nH]c3cccnc3c2-c2cc(Cl)ccn2)ccn1 [Example 32, N-{4-[3-(4-Chloropyridin-2-yl)-1H-pyrrolo[3,2-b]pyridin-2-yl]pyridin-2-yl}acetamide]
5 | 0.13 | 0.002 | CC(=O)Nc1cc(-c2[nH]c3ccc(F)nc3c2-c2cccc(Cl)n2)ccn1 [Example 34, N-{4-[3-(6-Chloropyridin-2-yl)-5-fluoro-1H-pyrrolo[3,2-b]pyridin-2-yl]pyridin-2-yl}acetamide]
6 | > 15 | 0.058 | CC(=O)Nc1cc(-c2[nH]c3c(C4CCN(C)CC4)ccnc3c2-c2cccc(C(F)F)n2)ccn1 [Example 137, N-(4-{3-[6-(Difluoromethyl)pyridin-2-yl]-7-(1-methylpiperidin-4-yl)-1H-pyrrolo[3,2-b]pyridin-2-yl}pyridin-2-yl)acetamide]
7 | > 15 | 0.535 | CC(=O)Nc1cc(-c2[nH]c3cc(Cl)cnc3c2-c2ncccc2C)ccn1 [Example 259, N-(4-(6-Chloro-3-(3-methylpyridin-2-yl)-1H-pyrrolo[3,2-b]pyridin-2-yl)pyridin-2-yl)acetamide]
8 | 5.22 | 0.003 | COc1ccc(-c2c(-c3ccnc(NC(C)=O)c3)[nH]c3cc(OC)cnc23)nc1 [Example 284, N-(4-(6-Methoxy-3-(5-methoxypyridin-2-yl)-1H-pyrrolo[3,2-b]pyridin-2-yl)pyridin-2-yl)acetamide]
9 | 0.057 | 0.0007 | CC(=O)Nc1cc(-c2[nH]c3cc(F)cnc3c2-c2nc(C)cs2)ccn1 [Example 225, N-(4-(6-Fluoro-3-(4-methylthiazol-2-yl)-1H-pyrrolo[3,2-b]pyridin-2-yl)pyridin-2-yl)acetamide]
10 | > 15 | 0.002 | COc1ccc(-c2c(-c3ccnc(NC(C)=O)c3)[nH]c3ccc(F)nc23)nc1 [Example 37, N-{4-[5-Fluoro-3-(5-methoxypyridin-2-yl)-1H-pyrrolo[3,2-b]pyridin-2-yl]pyridin-2-yl}acetamide]
11 | > 15 | 0.004 | CCOc1ccc(-c2c(-c3ccnc(NC(C)=O)c3)[nH]c3cc(Cl)cnc23)nc1 [Example 253, N-(4-(6-Chloro-3-(5-ethoxypyridin-2-yl)-1H-pyrrolo[3,2-b]pyridin-2-yl)pyridin-2-yl)acetamide]
12 | 0.352 | 0.002 | COc1ccc(-c2c(-c3ccnc(NC(C)=O)c3)[nH]c3c(Cl)ccnc23)cn1 [Example 271, N-(4-(7-Chloro-3-(6-methoxypyridin-3-yl)-1H-pyrrolo[3,2-b]pyridin-2-yl)pyridin-2-yl)acetamide]
13 | 0.325 | 0.0068 | CC(=O)Nc1cc(-c2[nH]c3cc(F)cnc3c2-c2ncc(Cl)s2)ccn1 [Example 206, N-(4-(3-(5-Chlorothiazol-2-yl)-6-fluoro-1H-pyrrolo[3,2-b]pyridin-2-yl)pyridin-2-yl)acetamide]
14 | 1.77 | 0.001 | CC(=O)Nc1cc(-c2[nH]c3c(C(C)(C)O)ccnc3c2-c2cccc(C(F)F)n2)ccn1 [Example 154, N-(4-{3-[6-(Difluoromethyl)pyridin-2-yl]-7-(2-hydroxypropan-2-yl)-1H-pyrrolo[3,2-b]pyridin-2-yl}pyridin-2-yl)acetamide]
15 | 0.668 | 0.001 | COc1ccc(-c2c(-c3ccnc(NC(=O)CN4CCN(C)CC4)c3)[nH]c3cccnc23)cn1 [Example 287, N-(4-(3-(6-Methoxypyridin-3-yl)-1H-pyrrolo[3,2-b]pyridin-2-yl)pyridin-2-yl)-2-(4-methylpiperazin-1-yl)acetamide]
16 | > 15 | 0.72 | COc1ncc(-c2c(-c3ccnc(NC(C)=O)c3)[nH]c3cccnc23)cn1 [Example 27, N-{4-[3-(2-Methoxypyrimidin-5-yl)-1H-pyrrolo[3,2-b]pyridin-2-yl]pyridin-2-yl}acetamide]
17 | 1.12 | 0.001 | COc1cnc2c(-c3cccc(C)n3)c(-c3ccnc(NC(C)=O)c3)[nH]c2c1 [Example 283, N-(4-(6-Methoxy-3-(6-methylpyridin-2-yl)-1H-pyrrolo[3,2-b]pyridin-2-yl)pyridin-2-yl)acetamide]
18 | > 15 | 0.003 | CCOc1ccnc2c(-c3cccc(C(F)F)n3)c(-c3ccnc(NC(C)=O)c3)[nH]c12 [Example 125, N-(4-{3-[6-(Difluoromethyl)pyridin-2-yl]-7-ethoxy-1H-pyrrolo[3,2-b]pyridin-2-yl}pyridin-2-yl)acetamide]
19 | 1.36 | 0.0037 | CC(=O)Nc1cc(-c2[nH]c3c(C)ccnc3c2-c2csc(C)n2)ccn1 [Example 221, N-(4-(7-Methyl-3-(2-methylthiazol-4-yl)-1H-pyrrolo[3,2-b]pyridin-2-yl)pyridin-2-yl)acetamide]
20 | 0.24 | 0.003 | COc1cnc2c(-c3ccc(F)cn3)c(-c3ccnc(NC(C)=O)c3)[nH]c2c1 [Example 49, N-{4-[3-(5-Fluoropyridin-2-yl)-6-methoxy-1H-pyrrolo[3,2-b]pyridin-2-yl]pyridin-2-yl}acetamide]
21 | > 15 | 0.007 | CC(=O)Nc1cc(-c2[nH]c3c(-c4ccnn4C)ccnc3c2-c2cccc(C(F)F)n2)ccn1 [Example 129, N-(4-{3-[6-(Difluoromethyl)pyridin-2-yl]-7-(1-methyl-1H-pyrazol-5-yl)-1H-pyrrolo[3,2-b]pyridin-2-yl}pyridin-2-yl)acetamide]
22 | ≥ 15 | 0.033 | CCNc1cc(-c2[nH]c3cc(Cl)cnc3c2-c2ccc(OC)cn2)ccn1 [Example 242, 4-(6-Chloro-3-(5-methoxypyridin-2-yl)-1H-pyrrolo[3,2-b]pyridin-2-yl)-N-ethylpyridin-2-amine]
23 | 10.8 | 0.001 | CC(=O)Nc1cc(-c2[nH]c3cc(Cl)cnc3c2-c2cccc(C(F)F)n2)ccn1 [Example 171, N-(4-(6-Chloro-3-(6-(difluoromethyl)pyridin-2-yl)-1H-pyrrolo[3,2-b]pyridin-2-yl)pyridin-2-yl)acetamide]
24 | 0.361 | 0.001 | CC(=O)Nc1cc(-c2[nH]c3c(C(O)C(C)C)ccnc3c2-c2cccc(C(F)F)n2)ccn1 (stereo not drawn) [Example 144, N-(4-{3-[6-(Difluoromethyl)pyridin-2-yl]-7-(1-hydroxy-2-methylpropyl)-1H-pyrrolo[3,2-b]pyridin-2-yl}pyridin-2-yl)acetamide]
25 | 2.03 | 0.009 | CC(=O)Nc1cc(-c2[nH]c3cccnc3c2-c2ncccn2)ccn1 [Example 8, N-{4-[3-(Pyrimidin-2-yl)-1H-pyrrolo[3,2-b]pyridin-2-yl]pyridin-2-yl}acetamide]
26 | 0.637 | 0.003 | CC(=O)Nc1cc(-c2[nH]c3c(CO)ccnc3c2-c2cccc(F)n2)ccn1 [Example 275, N-(4-(3-(6-Fluoropyridin-2-yl)-7-(hydroxymethyl)-1H-pyrrolo[3,2-b]pyridin-2-yl)pyridin-2-yl)acetamide]
27 | 0.253 | 0.001 | COc1ccc(-c2c(-c3ccnc(NC(=O)CN4CCOCC4)c3)[nH]c3cccnc23)cn1 [Example 286, N-(4-(3-(6-Methoxypyridin-3-yl)-1H-pyrrolo[3,2-b]pyridin-2-yl)pyridin-2-yl)-2-morpholinoacetamide]
28 | 4.12 | 0.023 | CC(=O)Nc1cc(-c2[nH]c3c(CO)ccnc3c2-c2ccc(C)nc2)ccn1 [Example 280, N-(4-(7-(Hydroxymethyl)-3-(6-methylpyridin-3-yl)-1H-pyrrolo[3,2-b]pyridin-2-yl)pyridin-2-yl)acetamide]
29 | > 15 | 0.0279 | COc1ccc(-c2c(-c3ccnc(NC(C)=O)c3)[nH]c3cc(N4CCC[C@H]4CO)cnc23)nc1 [Example 162, (S)-N-(4-(6-(2-(Hydroxymethyl)pyrrolidin-1-yl)-3-(5-methoxypyridin-2-yl)-1H-pyrrolo[3,2-b]pyridin-2-yl)pyridin-2-yl)acetamide]
30 | > 15 | 0.002 | COc1ccnc2c(-c3cccc(C(F)F)n3)c(-c3ccnc(NC(C)=O)c3)[nH]c12 [Example 267, N-(4-(3-(6-(Difluoromethyl)pyridin-2-yl)-7-methoxy-1H-pyrrolo[3,2-b]pyridin-2-yl)pyridin-2-yl)acetamide]
